Test results reported in the NIST ThermoML archive (doi:10.1016/j.jct.2016.01.021).
Numbers after ± are expanded uncertainties.

Experiment: xn = mol fraction of the nth substance listed
Conditions: 100 kPa, Liquid; for viscosity: Capillary tube (Ostwald / Ubbelohde) method; for mass density: Vibrating tube method

CCCCCCCCCC(=O)OCC [ethyl decanoate] + CCCCCCCCCCCCCCCC
Conditions	mass density [kg/m3]	viscosity [mPa·s]
298.15 K, x2 = 0	860.05 ± 0.83	2.115 ± 0.045
298.15 K, x2 = 0.1	848.4 ± 0.83	2.169 ± 0.046
298.15 K, x2 = 0.2	837.44 ± 0.83	2.23 ± 0.047
298.15 K, x2 = 0.3	827.17 ± 0.83	2.298 ± 0.049
298.15 K, x2 = 0.4	817.5 ± 0.83	2.374 ± 0.05
298.15 K, x2 = 0.5	808.41 ± 0.83	2.46 ± 0.052
298.15 K, x2 = 0.6	799.81 ± 0.83	2.556 ± 0.054
298.15 K, x2 = 0.7	791.69 ± 0.83	2.664 ± 0.057
298.15 K, x2 = 0.8	783.98 ± 0.83	2.785 ± 0.059
298.15 K, x2 = 0.9	776.78 ± 0.83	2.923 ± 0.062
303.15 K, x2 = 0	855.99 ± 0.83	1.919 ± 0.041
303.15 K, x2 = 0.1	844.41 ± 0.83	1.966 ± 0.042
303.15 K, x2 = 0.2	833.53 ± 0.83	2.019 ± 0.043
303.15 K, x2 = 0.3	823.32 ± 0.83	2.079 ± 0.044
303.15 K, x2 = 0.4	813.71 ± 0.83	2.144 ± 0.046
303.15 K, x2 = 0.5	804.69 ± 0.83	2.219 ± 0.047
303.15 K, x2 = 0.6	796.15 ± 0.83	2.303 ± 0.049
303.15 K, x2 = 0.7	788.08 ± 0.83	2.396 ± 0.051
303.15 K, x2 = 0.8	780.42 ± 0.83	2.501 ± 0.053
303.15 K, x2 = 0.9	773.27 ± 0.83	2.618 ± 0.056
308.15 K, x2 = 0	851.92 ± 0.83	1.75 ± 0.037
308.15 K, x2 = 0.1	840.42 ± 0.83	1.79 ± 0.038
308.15 K, x2 = 0.2	829.61 ± 0.83	1.837 ± 0.039
308.15 K, x2 = 0.3	819.48 ± 0.83	1.89 ± 0.04
308.15 K, x2 = 0.4	809.93 ± 0.83	1.948 ± 0.041
308.15 K, x2 = 0.5	800.96 ± 0.83	2.013 ± 0.043
308.15 K, x2 = 0.6	792.49 ± 0.83	2.086 ± 0.044
308.15 K, x2 = 0.7	784.47 ± 0.83	2.167 ± 0.046
308.15 K, x2 = 0.8	776.87 ± 0.83	2.257 ± 0.048
308.15 K, x2 = 0.9	769.76 ± 0.83	2.358 ± 0.05
313.15 K, x2 = 0	847.85 ± 0.83	1.603 ± 0.034
313.15 K, x2 = 0.1	836.43 ± 0.83	1.639 ± 0.035
313.15 K, x2 = 0.2	825.69 ± 0.83	1.68 ± 0.036
313.15 K, x2 = 0.3	815.62 ± 0.83	1.726 ± 0.037
313.15 K, x2 = 0.4	806.15 ± 0.83	1.777 ± 0.038
313.15 K, x2 = 0.5	797.24 ± 0.83	1.835 ± 0.039
313.15 K, x2 = 0.6	788.82 ± 0.83	1.899 ± 0.04
313.15 K, x2 = 0.7	780.86 ± 0.83	1.97 ± 0.042
313.15 K, x2 = 0.8	773.31 ± 0.83	2.049 ± 0.044
313.15 K, x2 = 0.9	766.26 ± 0.83	2.137 ± 0.045
318.15 K, x2 = 0	843.77 ± 0.83	1.474 ± 0.031
318.15 K, x2 = 0.1	832.43 ± 0.83	1.506 ± 0.032
318.15 K, x2 = 0.2	821.76 ± 0.83	1.544 ± 0.033
318.15 K, x2 = 0.3	811.77 ± 0.83	1.585 ± 0.034
318.15 K, x2 = 0.4	802.35 ± 0.83	1.63 ± 0.035
318.15 K, x2 = 0.5	793.51 ± 0.83	1.68 ± 0.036
318.15 K, x2 = 0.6	785.15 ± 0.83	1.737 ± 0.037
318.15 K, x2 = 0.7	777.25 ± 0.83	1.799 ± 0.038
318.15 K, x2 = 0.8	769.76 ± 0.83	1.869 ± 0.04
318.15 K, x2 = 0.9	762.74 ± 0.83	1.947 ± 0.041
323.15 K, x2 = 0	839.69 ± 0.83	1.362 ± 0.029
323.15 K, x2 = 0.1	828.42 ± 0.83	1.39 ± 0.03
323.15 K, x2 = 0.2	817.83 ± 0.83	1.423 ± 0.03
323.15 K, x2 = 0.3	807.9 ± 0.83	1.46 ± 0.031
323.15 K, x2 = 0.4	798.56 ± 0.83	1.501 ± 0.032
323.15 K, x2 = 0.5	789.78 ± 0.83	1.546 ± 0.033
323.15 K, x2 = 0.6	781.48 ± 0.83	1.595 ± 0.034
323.15 K, x2 = 0.7	773.64 ± 0.83	1.651 ± 0.035
323.15 K, x2 = 0.8	766.2 ± 0.83	1.712 ± 0.036
323.15 K, x2 = 0.9	759.24 ± 0.83	1.779 ± 0.038
